Read-outs that look alike come from different tables or passages of the source.
What was measured:
hSTING [1] = biological target: T1, hSTING (Homo sapiens, UniProt Q86WV6); experiment: hSTING titration of fluorescein-labeled cyclic dinucleotide probes by fluorescence polarization; assay type: binding; details: 50 nM probe, 1× PBS, 5 min room temperature, n = 3; read-out: Kd (dissociation constant, probe-hSTING)
T1 construct: SUMO; His; made in house; host or cells: E. coli Rosetta 2(pLysS)

hSTING [2] = biological target: T1, hSTING; experiment: Probe displacement assay: F-c-di-GMP displaced from hSTING by unlabeled cyclic dinucleotides (FP); assay type: binding; details: 50 nM F-c-di-GMP, 10 μM hSTING; read-out: apparent half maximal inhibitory concentration (displacement of F-c-di-GMP)
hSTING [3] = biological target: T1, hSTING; details: cited from earlier work; for Kd: natural cyclic dinucleotides, read-out: Kd (binding constant for hSTING)
hENPP1 [4] = system: T2, hENPP1; experiment: ENPP1 cGAMP hydrolysis tracking, FP assay detection; assay type: biochemical, human; details: ENPP1 9.16 nM, 50 μM cGAMP
T2 construct: purchased R&D Systems

hENPP1 [5] = system: T2, hENPP1; experiment: ENPP1 cGAMP hydrolysis tracking, HPLC analysis; assay type: biochemical, human; details: ENPP1 9.16 nM, 50 μM cGAMP
[6] = ENPP1 hydrolysis products of cGAMP, stated without reference

T1 sequence (Q86WV6 155-341 limits assumed): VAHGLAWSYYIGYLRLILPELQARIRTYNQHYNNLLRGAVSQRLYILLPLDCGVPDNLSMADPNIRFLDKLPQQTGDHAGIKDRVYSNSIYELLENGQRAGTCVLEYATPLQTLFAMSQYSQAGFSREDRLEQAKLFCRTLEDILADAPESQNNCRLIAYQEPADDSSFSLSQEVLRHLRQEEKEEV

Compound: 2′-O-(6-[fluoresceinyl]aminohexylcarbamoyl)-cyclic diadenosine monophosphate [F-c-di-AMP]
- Kd (hSTING [1]): 29.8 ± 6.3 µM

Compound: Nc1ncnc2c1ncn2[C@@H]1O[C@@H]2COP(=O)(O)O[C@H]3[C@@H](O)[C@H](n4cnc5c(N)ncnc54)O[C@@H]3COP(=O)(O)O[C@H]2[C@H]1O [c-di-AMP]
- IC50 (hSTING [2]): 7.35 ± 0.86 µM
- Kd (hSTING [3]): 1.38 µM

Compound: Nc1nc2c(ncn2[C@@H]2O[C@@H]3COP(=O)(O)O[C@H]4[C@@H](O)[C@H](n5cnc6c(N)ncnc65)O[C@@H]4COP(=O)(O)O[C@@H]2[C@@H]3O)c(=O)[nH]1 [cGAMP, 2′3-cGAMP]
- cGAMP percent cleavage FP Assay (hENPP1 [4]; 0 min): 0%
- cGAMP percent cleavage FP Assay (hENPP1 [4]; 10 min): 49%
- cGAMP percent cleavage FP Assay (hENPP1 [4]; 20 min): 77%
- cGAMP percent cleavage FP Assay (hENPP1 [4]; 30 min): 98%
- cGAMP percent cleavage FP Assay (hENPP1 [4]; 40 min): 95%
- cGAMP percent cleavage FP Assay (hENPP1 [4]; 50 min (assumed 100% cleavage)): 100%
- cGAMP percent cleavage HPLC (hENPP1 [5]; 0 min): 0%
- cGAMP percent cleavage HPLC (hENPP1 [5]; 10 min): 44%
- cGAMP percent cleavage HPLC (hENPP1 [5]; 20 min): 56%
- cGAMP percent cleavage HPLC (hENPP1 [5]; 40 min): 76%
- cGAMP percent cleavage HPLC (hENPP1 [5]; 50 min): 85%

Compound: Nc1nc2c(ncn2[C@@H]2O[C@H](COP(=O)(O)O)[C@@H](O)[C@H]2O)c(=O)[nH]1 [GMP]
- hSTING binding (hSTING [3]; [6]): do not bind

Compound: 2′-O-(6-[fluoresceinyl]aminohexylcarbamoyl)-cyclic diguanosine monophosphate [F-c-di-GMP]
- Kd (hSTING [1]): 3.45 ± 0.48 µM

Compound: Nc1nc2c(ncn2[C@@H]2O[C@H](CO)[C@@H](O)[C@H]2OP(=O)(O)OC[C@H]2O[C@@H](n3cnc4c(N)ncnc43)[C@H](O)[C@@H]2OP(=O)(O)O)c(=O)[nH]1 [Gp[2′–5′]Ap[3′]]
- hSTING binding (hSTING [3]; poxin product of cGAMP): does not bind

Compound: Nc1ncnc2c1ncn2[C@@H]1O[C@H](COP(=O)(O)O)[C@@H](O)[C@H]1O [AMP]
- hSTING binding (hSTING [3]; [6]): do not bind

Compound: Nc1nc2c(ncn2[C@@H]2O[C@@H]3COP(=O)(O)O[C@H]4[C@@H](O)[C@H](n5cnc6c(=O)[nH]c(N)nc65)O[C@@H]4COP(=O)(O)O[C@H]3[C@H]2O)c(=O)[nH]1 [c-di-GMP]
- IC50 (hSTING [2]): 7.41 ± 0.49 µM
- Kd (hSTING [3]): 1.21 µM

— publication PMC8341399, “A STING-based fluorescent polarization assay for monitoring activities of cyclic dinucleotide metabolizing enzymes” (RSC Chemical Biology, 2020)
